The target of the assay is His6-TEV-PDGFRβ (557-1016) (Homo sapiens (Human), UniProt P09619). The experiment in a line: PDGFRβ HTRF Assay. Type of assay: biochemical. Conditions: read-out: PDGFR HTRF IC50. Summed up: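 HTRF KinEASE-TK readout (665/620 nm ratio) of TK-biotin substrate phosphorylation by His-tagged PDGFRβ kinase domain. Enzyme and inhibitor preincubated 30 min, then ATP/substrate added for 3 h at room temperature before 60 min EDTA quench/detection.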
Sequence of His6-TEV-PDGFRβ (557-1016) (P09619 557-1016): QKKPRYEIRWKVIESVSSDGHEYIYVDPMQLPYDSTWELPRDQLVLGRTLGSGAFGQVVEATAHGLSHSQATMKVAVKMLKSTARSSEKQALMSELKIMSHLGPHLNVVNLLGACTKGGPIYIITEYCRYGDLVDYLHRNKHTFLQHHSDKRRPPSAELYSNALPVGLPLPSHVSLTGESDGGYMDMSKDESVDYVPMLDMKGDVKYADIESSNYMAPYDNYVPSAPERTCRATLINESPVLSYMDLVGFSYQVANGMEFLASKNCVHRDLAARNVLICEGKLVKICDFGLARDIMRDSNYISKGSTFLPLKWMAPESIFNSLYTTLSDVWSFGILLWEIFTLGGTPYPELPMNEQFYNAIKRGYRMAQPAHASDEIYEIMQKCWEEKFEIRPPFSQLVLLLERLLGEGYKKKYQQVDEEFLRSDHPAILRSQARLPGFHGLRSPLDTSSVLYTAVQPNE
A general note: Time-resolved FRET reads energy transfer from a long-lived donor to a nearby acceptor.
The term IC50 denotes the concentration at which inhibition is half-maximal. Regarding `Cc1ncc(NC(=O)CCN2CCCC2(C)C)cc1NC(=O)c1cnn2cc(-c3ccn(C)n3)sc12` [Example 12, N-(5-(3-(2,2-dimethylpyrrolidin-1-yl)propanamido)-2-methyl-pyridin-3-yl)-2-(1-methyl-1H-pyrazol-3-yl)pyrazolo[5,1-b]thiazole-7-carboxamide], the IC50 is 0.3 nM.

With `Cc1ncc(NC(=O)CN2CCCC2(C)C)cc1NC(=O)c1cnn2cc(-c3cnn(C)c3)sc12` [Example 13, N-(5-(2-(2,2-dimethylpyrrolidin-1-yl)acetamido)-2-methylpyridin-3-yl)-2-(1-methyl-1H-pyrazol-4-yl)pyrazolo[5,1-b]thiazole-7-carboxamide], the IC50 is 0.5 nM.

For `Cc1ncc(NC(=O)CN2CCC(F)(F)CC2)cc1NC(=O)c1cnn2cc(-c3cnn(C)c3)sc12` [Example 14, N-(5-(2-(4,4-difluoropiperidin-1-yl)acetamido)-2-methylpyridin-3-yl)-2-(1-methyl-1H-pyrazol-4-yl)pyrazolo[5,1-b]thiazole-7-carboxamide], the IC50 was determined as 0.4 nM.

Regarding `Cc1ncc(NC(=O)CN(C)C2CCOCC2)cc1NC(=O)c1cnn2cc(-c3cnn(C)c3)sc12` [Example 15, 2-(1-methyl-1H-pyrazol-4-yl)-N-(2-methyl-5-(2-(methyl(tetrahydro-2H-pyran-4-yl)amino)acetamido)pyridin-3-yl)pyrazolo[5,1-b]thiazole-7-carboxamide], the IC50 came out at 0.5 nM.

Regarding `Cc1ncc(NC(=O)CN2CCCC23CC3)cc1NC(=O)c1cnn2cc(-c3cnn(C)c3)sc12` [Example 16, N-(5-(2-(4-azaspiro[2.4]heptan-4-yl)acetamido)-2-methylpyridin-3-yl)-2-(1-methyl-1H-pyrazol-4-yl)pyrazolo[5,1-b]thiazole-7-carboxamide], the IC50 was 0.5 nM.

On to `Cc1ncc(NC(=O)CN2CCc3cnn(C)c3C2)cc1NC(=O)c1cnn2cc(-c3cnn(C)c3)sc12` [Example 17, 2-(1-methyl-1H-pyrazol-4-yl)-N-(2-methyl-5-(2-(1-methyl-4,5-dihydro-1H-pyrazolo[3,4-c]pyridin-6 (7H)-yl)acetamido)pyridin-3-yl)pyrazolo[5,1-b]thiazole-7-carboxamide], for which the IC50 turned out to be 0.5 nM.

As for `Cc1ncc(NC(=O)CN2CCC3(COC3)C2)cc1NC(=O)c1cnn2cc(-c3cnn(C)c3)sc12` [Example 18, N-(5-(2-(2-oxa-6-azaspiro[3.4]octan-6-yl)acetamido)-2-methylpyridin-3-yl)-2-(1-methyl-1H-pyrazol-4-yl)pyrazolo[5,1-b]thiazole-7-carboxamide], the IC50 was 0.6 nM.

Take `Cc1ncc(C(=O)NCCN2CC3CCC2CC3)cc1NC(=O)c1cnn2cc(-c3cnn(C(F)F)c3)sc12` [Example 180, N-(5-((2-(2-azabicyclo[2.2.2]octan-2-yl)ethyl)carbamoyl)-2-methylpyridin-3-yl)-2-(1-(difluoromethyl)-1H-pyrazol-4-yl)pyrazolo[5,1-b]thiazole-7-carboxamide]: the IC50 was found to be 0.4 nM.

Take `Cc1ncc(C(=O)NCCN2CC3CCC2CC3)cc1NC(=O)c1cnn2cc(-c3cnn(C4CC4)c3)sc12` [Example 181, N-(5-((2-(2-azabicyclo[2.2.2]octan-2-yl)ethyl)carbamoyl)-2-methylpyridin-3-yl)-2-(1-cyclopropyl-1H-pyrazol-4-yl)pyrazolo[5,1-b]thiazole-7-carboxamide]: the IC50 is 0.2 nM.

`Cc1cc(C(=O)NCCN2CCCC2(C)C)sc1NC(=O)c1cnn2cc(-c3cnn(C)c3)sc12` [Example 182, N-(5-((2-(2,2-dimethylpyrrolidin-1-yl)ethyl)carbamoyl)-3-methylthiophen-2-yl)-2-(1-methyl-1H-pyrazol-4-yl)pyrazolo[5,1-b]thiazole-7-carboxamide]: the IC50 was found to be 24.1 nM.

For `Cc1cc(C(=O)NCCN2CCC(C)(C)CC2)sc1NC(=O)c1cnn2cc(-c3cnn(C)c3)sc12` [Example 183, N-(5-((2-(4,4-dimethylpiperidin-1-yl)ethyl)carbamoyl)-3-methylthiophen-2-yl)-2-(1-methyl-1H-pyrazol-4-yl)pyrazolo[5,1-b]thiazole-7-carboxamide], the IC50 amounted to 11.1 nM.

Regarding `Cc1cc(C(=O)NCCN2CCCC2(C)C)sc1NC(=O)c1cnn2cc(-c3ccc(N)nc3)sc12` [Example 184, 2-(6-aminopyridin-3-yl)-N-(5-((2-(2,2-dimethylpyrrolidin-1-yl)ethyl)carbamoyl)-3-methylthiophen-2-yl)pyrazolo[5,1-b]thiazole-7-carboxamide], the IC50 is 15.9 nM.

Consider `Cc1cc(C(=O)NCCN2CCCC2(C)C)sc1NC(=O)c1cnn2cc(-c3cncnc3)sc12` [Example 185, N-(5-((2-(2,2-dimethylpyrrolidin-1-yl)ethyl)carbamoyl)-3-methylthiophen-2-yl)-2-(pyrimidin-5-yl)pyrazolo[5,1-b]thiazole-7-carboxamide], for which the IC50 came out at 704 nM.

Regarding `Cc1cc(C(=O)NCCN2CCCC2(C)C)sc1NC(=O)c1cnn2cc(-c3cnn(C)n3)sc12` [Example 186, N-(5-((2-(2,2-dimethylpyrrolidin-1-yl)ethyl)carbamoyl)-3-methylthiophen-2-yl)-2-(2-methyl-2H-1,2,3-triazol-4-yl)pyrazolo[5,1-b]thiazole-7-carboxamide], the IC50 worked out at 41.4 nM.

Turning to `Cc1cc(C(=O)NCCN2CCCC2(C)C)sc1NC(=O)c1cnn2cc(-c3ccncc3)sc12` [Example 187, N-(5-((2-(2,2-dimethylpyrrolidin-1-yl)ethyl)carbamoyl)-3-methylthiophen-2-yl)-2-(pyridin-4-yl)pyrazolo[5,1-b]thiazole-7-carboxamide], the IC50 was 27.7 nM.

In the case of `Cc1cc(C(=O)NCCN2CCCC2(C)C)sc1NC(=O)c1cnn2cc(-c3ccn(C)n3)sc12` [Example 188, N-(5-((2-(2,2-dimethylpyrrolidin-1-yl)ethyl)carbamoyl)-3-methylthiophen-2-yl)-2-(1-methyl-1H-pyrazol-3-yl)pyrazolo[5,1-b]thiazole-7-carboxamide], the IC50 was determined as 9.5 nM.

Regarding `Cc1cc(C(=O)NCCN2CCC(C)(C)C2)sc1NC(=O)c1cnn2cc(-c3cnn(C)c3)sc12` [Example 189, N-(5-((2-(3,3-dimethylpyrrolidin-1-yl)ethyl)carbamoyl)-3-methylthiophen-2-yl)-2-(1-methyl-1H-pyrazol-4-yl)pyrazolo[5,1-b]thiazole-7-carboxamide], the 50% inhibitory concentration (IC50) is 7.3 nM.

For the compound `Cc1cc(C(=O)NCCN(C)C2CCCC2)sc1NC(=O)c1cnn2cc(-c3cnn(C)c3)sc12` [Example 190, N-(5-((2-(cyclopentyl(methyl)amino)ethyl)carbamoyl)-3-methylthiophen-2-yl)-2-(1-methyl-1H-pyrazol-4-yl)pyrazolo[5,1-b]thiazole-7-carboxamide], the IC50 was determined as 6 nM.

Regarding `Cc1cc(C(=O)NCCN2CCC(O)CC2)sc1NC(=O)c1cnn2cc(-c3cnn(C)c3)sc12` [Example 191, N-(5-((2-(4-hydroxypiperidin-1-yl)ethyl)carbamoyl)-3-methylthiophen-2-yl)-2-(1-methyl-1H-pyrazol-4-yl)pyrazolo[5,1-b]thiazole-7-carboxamide], the IC50 came out at 248 nM.

For the compound `Cc1cc(C(=O)NCCN(C)C2CCOCC2)sc1NC(=O)c1cnn2cc(-c3cnn(C)c3)sc12` [Example 192, 2-(1-methyl-1H-pyrazol-4-yl)-N-(3-methyl-5-((2-(methyl(tetrahydro-2H-pyran-4-yl)amino)ethyl)carbamoyl)thiophen-2-yl)pyrazolo[5,1-b]thiazole-7-carboxamide], the IC50 came to 34.6 nM.

Turning to `Cc1cc(C(=O)NCCN2CCC(CO)CC2)sc1NC(=O)c1cnn2cc(-c3cnn(C)c3)sc12` [Example 193, N-(5-((2-(4-(hydroxymethyl)piperidin-1-yl)ethyl)carbamoyl)-3-methylthiophen-2-yl)-2-(1-methyl-1H-pyrazol-4-yl)pyrazolo[5,1-b]thiazole-7-carboxamide], the IC50 came out at 321 nM.

As to `Cc1cc(C(=O)NCCN2CC[C@@H](O)C2)sc1NC(=O)c1cnn2cc(-c3cnn(C)c3)sc12` [Example 194, (R)—N-(5-((2-(3-hydroxypyrrolidin-1-yl)ethyl)carbamoyl)-3-methylthiophen-2-yl)-2-(1-methyl-1H-pyrazol-4-yl)pyrazolo[5,1-b]thiazole-7-carboxamide], the IC50 was 147 nM.

Take `Cc1cc(C(=O)NCCN2CC[C@H](O)C2)sc1NC(=O)c1cnn2cc(-c3cnn(C)c3)sc12` [Example 195, (S)—N-(5-((2-(3-hydroxypyrrolidin-1-yl)ethyl)carbamoyl)-3-methylthiophen-2-yl)-2-(1-methyl-1H-pyrazol-4-yl)pyrazolo[5,1-b]thiazole-7-carboxamide]: the IC50 came to 156 nM.

In the case of `Cc1cc(C(=O)NCCN2CCOCC23CC3)sc1NC(=O)c1cnn2cc(-c3cnn(C)c3)sc12` [Example 197, N-(5-((2-(7-oxa-4-azaspiro[2.5]octan-4-yl)ethyl)carbamoyl)-3-methylthiophen-2-yl)-2-(1-methyl-1H-pyrazol-4-yl)pyrazolo[5,1-b]thiazole-7-carboxamide], the IC50 came to 11.5 nM.

Turning to `Cc1cc(C(=O)NCCN2[C@H](C)CCC[C@@H]2C)sc1NC(=O)c1cnn2cc(-c3cnn(C)c3)sc12` [Example 198, N-(5-((2-((2S,6R)-2,6-dimethylpiperidin-1-yl)ethyl)carbamoyl)-3-methylthiophen-2-yl)-2-(1-methyl-1H-pyrazol-4-yl)pyrazolo[5,1-b]thiazole-7-carboxamide], the IC50 came to 2 nM.

Take `Cc1cc(C(=O)NCCN2CC3CCC2CC3)sc1NC(=O)c1cnn2cc(-c3cnn(C)c3)sc12` [Example 199, N-(5-((2-(2-azabicyclo[2.2.2]octan-2-yl)ethyl)carbamoyl)-3-methylthiophen-2-yl)-2-(1-methyl-1H-pyrazol-4-yl)pyrazolo[5,1-b]thiazole-7-carboxamide]: the IC50 amounted to 2 nM.
